Measurements from ChEMBL document CHEMBL3393049, “Syntheses and Antituberculosis Activity of 1,3-Benzothiazinone Sulfoxide and Sulfone Derived from BTZ043” (ACS Med Chem Lett, 2015).
Values after ≈ are worked out from the molar mass of the structure shown.

Tested on: Mycobacterium tuberculosis variant bovis BCG
Assay: Antimycobacterial activity against Mycobacterium bovis BCG ATCC 35734 assessed as reduction in bacterial growth incubated for 6 days by MABA method
Format: functional
Conditions: ATCC 35734, 144 h

SMILES	MIC [µM]
C[C@H]1COC2(CCN(c3nc(=O)c4cc(C(F)(F)F)cc([N+](=O)[O-])c4[s+]3[O-])CC2)O1 (stereo not given in full)	0.21 (≈ 0.094 µg/mL)
C[C@H]1COC2(CCN(C3=NC(=O)c4cc(C(F)(F)F)cc([N+](=O)[O-])c4S3(=O)=O)CC2)O1	> 1
C[C@H]1COC2(CCN(c3nc(=O)c4cc(C(F)(F)F)cc([N+](=O)[O-])c4s3)CC2)O1 [BTZ-043]	< 0.02
NNC(=O)c1ccncc1 [ISONIAZID]	0.5 (≈ 0.0686 µg/mL)
CO[C@H]1/C=C/O[C@@]2(C)Oc3c(C)c(O)c4c(O)c(c(/C=N/N5CCN(C)CC5)c(O)c4c3C2=O)NC(=O)/C(C)=C\C=C\[C@H](C)[C@H](O)[C@@H](C)[C@@H](O)[C@@H](C)[C@H](OC(C)=O)[C@@H]1C [RIFAMPIN]	0.02 (≈ 0.0165 µg/mL)
